Outcome data for 114 compounds are collected here from PubChem BioAssay AID1194 (EPA DSSTox, 2008).

The source made the active and inactive calls.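 How the source made its calls: active means chemicals rated mutagenic or weakly mutagenic in the Salmonella bacterial test by one literature review, or positive overall by another; inconclusive means no clear call, values can overlap the other calls; inactive means the rest.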

The subject of this data set is Salmonella typhimurium Ames mutagenicity, literature compiled. The data set can be described thus: DSSTox (CPDBAS) Carcinogenic Potency Database Salmonella Mutagenicity. A digest of the protocol:
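Calls derive from published evaluations rather than new testing; overall "positive" in EPA Gene-Tox, or "mutagenic"/"weakly mutagenic" per Zeiger, counts as active.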
In the case of `Nc1ccc(Sc2ccc(N)cc2)cc1`, the outcome is “active; inactive”.
Then `COc1ccc(O)c(C(C)(C)C)c1`, with “inactive; active”; and `Cc1cccc(N)c1`, with “inactive”; and `O=Cc1ccccc1`, with “inactive; active”.
Then `C=C(C)C#N`, with “inactive; active”; and `OC[C@@H](O)[C@@H](O)[C@H](O)[C@H](O)CO`, with “inactive; active”.
Then `CCN(C)N=O`, with “active”; and `NS(=O)(=O)c1cc2c(cc1Cl)NCNS2(=O)=O`, with “inactive; active”.
Consider `S=[Se]`, for which the outcome was active.
Turning to `COc1cccc2c1C(=O)c1c(O)c3c(c(O)c1C2=O)C[C@@](O)(C(=O)CO)C[C@@H]3O[C@H]1C[C@H](N)[C@H](O)[C@H](C)O1`, the result was active.
Then `CCCN(N=O)C(=N)N[N+](=O)[O-]`, with “active; inactive”; and `COc1cc(CNC(=O)CCCC/C=C/C(C)C)ccc1O`, with “inactive; active”.
Turning to `Clc1ccc(Cl)cc1`, the result was inactive.
Then `CC(C)[N+](=O)[O-]`, with “active”; and `S=C1NCCN1`, with “active”; and `COc1ccccc1[N+](=O)[O-]`, with “active”.
To `O=[N+]([O-])c1cc([As](=O)(O)O)ccc1O` belongs “inactive”; to `C=CC1CC=CCC1` (centres undefined), “inactive”.
Consider `Cc1ccc(N=Nc2c(O)c(S(=O)(=O)O)cc3ccc(S(=O)(=O)O)cc23)c(C)c1`, for which the result was active.
For the compound `Cc1ccc(N=C=O)cc1N=C=O`, the outcome was active.
Then `c1ccc(-c2ccccc2)cc1`, with “inactive”; and `[O]=[Mo](=[O])=[O]`, with “inactive; active”; and `CNC(=O)O/N=C/C(C)(C)SC`, with “inactive”.
Then `C=C1C(CCl)(CCl)C2(Cl)C(Cl)C(Cl)C1(Cl)C2(Cl)Cl` (centres undefined), with “active; inactive”; and `NNCCO`, with “active; inactive”.
Then `Cc1ccc(S(=O)(=O)Oc2ccc(N=Nc3ccc(-c4ccc(N=Nc5c(O)ccc6cc(S(=O)(=O)O)cc(S(=O)(=O)O)c56)c(C)c4)cc3C)cc2)cc1`, with “active”.
`CC(=O)OCc1ccccc1`: the outcome is “inactive; active”.
Then `O=C1C(c2[nH]c3ccc(S(=O)(=O)O)cc3c2O)=Nc2ccc(S(=O)(=O)O)cc21`, with “inactive”; and `NC(=O)Cc1cccc2ccccc12`, with “active”; and `CCn1cc(C(=O)O)c(=O)c2ccc(C)nc21`, with “inactive”.
To `O=NN1CCOCC1` belongs “active”; to `O=C(OOC(=O)c1ccccc1)c1ccccc1`, “inactive; active”.
As for `c1ccc(Nc2ccc3ccccc3c2)cc1`, the outcome was “inactive; active”.
To `Clc1ccccc1Cl` belongs “inactive”; to `C[C@@H]1O[C@@H](OC[C@H]2O[C@@H](Oc3c(-c4ccc(O)c(O)c4)oc4cc(O)cc(O)c4c3=O)[C@H](O)[C@@H](O)[C@@H]2O)[C@H](O)[C@H](O)[C@H]1O`, “active; inactive”.
Consider `c1ccncc1`, for which the result was inactive.
To `COc1ccc([N+](=O)[O-])cc1N` belongs “active; inactive”; to `C=CCOC(=O)CC(C)C`, “inactive; active”.
To `ClC1C(Cl)C(Cl)C(Cl)C(Cl)C1Cl` (centres undefined) belongs “inactive; active”; to `CCCN(N=O)C(N)=O`, “active”.
Turning to `[Cl-].[Cl-].[Sn+2]`, the outcome was inactive.
As to `OCC(CO)(CBr)CBr`, the outcome was active.
To `OC[P+](CO)(CO)CO` belongs “inactive; active”.
To `ClCCOCCCl` belongs “active”; to `O=C1OC(c2ccc(O)cc2)(c2ccc(O)cc2)c2ccccc21`, “inactive”; to `[O]=[Cr](=[O])([OH])[O][Cr](=[O])(=[O])[OH]`, “active”.
To `CCn1c2ccccc2c2cc(N)ccc21` belongs “active”; to `CCCCCCc1ccc(O)cc1O`, “inactive; active”; to `Nc1cccc(N)c1`, “active”.
Consider `Nc1ccccc1N`, for which the outcome was active.
Take `CC(C)Oc1ccc(Nc2ccccc2)cc1`: the outcome was “inactive; active”.
On to `CC(=O)Nc1ccc(N=Nc2cc(C)ccc2O)cc1`, for which the outcome was active.
To `[CH3][Hg][Cl]` belongs “inactive; active”.
Then `C=CF`, with “active; inactive”; and `CCNC(=O)Nc1ncc([N+](=O)[O-])s1`, with “active; inactive”; and `OC[C@H]1O[C@@](CO)(O[C@H]2O[C@H](CO)[C@@H](O)[C@H](O)[C@H]2O)[C@@H](O)[C@@H]1O`, with “inactive; active”.
To `CCOC(=O)CC(SP(=O)(OC)OC)C(=O)OCC` (centres undefined) belongs “inactive”; to `Nc1ccc(Cc2ccc(N)cc2)cc1`, “active”; to `C[C@](N)(Cc1ccc(O)c(O)c1)C(=O)O`, “inactive”.
Consider `C=CCc1ccc(OC)c(OC)c1`, for which the outcome was “inactive; active”.
To `CN(C)CCOC(C)(c1ccccc1)c1ccccn1` (centres undefined) belongs “inactive”; to `CCN(N=O)C(N)=O`, “active; inactive”; to `CBr`, “active”.
To `CC(=O)[O][Hg][c]1ccccc1` belongs “inactive; active”; to `CC(C)(Oc1ccc(C2CCCc3ccccc32)cc1)C(=O)O` (centres undefined), “inactive”; to `ClC(Cl)=C(Cl)C(Cl)=C(Cl)Cl`, “inactive; active”.
Then `Cn1c(N)nc2ncc(-c3ccccc3)cc21`, with “active”.
On to `O=C(N[C@H](CO)[C@H](O)c1ccc([N+](=O)[O-])cc1)C(Cl)Cl`, for which the result was inactive.
To `Nc1ccc([N+](=O)[O-])cc1O` belongs “active”; to `Oc1ccc(O)cc1`, “inactive”; to `C=CCc1ccc(O)c(OC)c1`, “inactive”.
To `C=C(Cl)CSC(=S)N(CC)CC` belongs “active; inactive”; to `CCOc1ccc(NC(C)=O)cc1N`, “active”; to `O=NN(CCO)CCO`, “active; inactive”.
To `CC1(C)COC1=O` belongs “active”; to `ClC(Cl)Br`, “active”; to `CC(=O)C(N=Nc1ccc(-c2ccc(N=NC(C(C)=O)C(=O)Nc3ccccc3)c(Cl)c2)cc1Cl)C(=O)Nc1ccccc1` (centres undefined), “inactive”.
Regarding `Nc1c(Br)cc(Br)c2c1C(=O)c1ccccc1C2=O`, the result was active.
To `O=S(=O)(O)c1ccc(N=Nc2c(O)ccc3cc(S(=O)(=O)O)ccc23)cc1` belongs “inactive; active”.
To `Oc1cc2c(cc1O)[C@H]1c3ccc(O)c(O)c3OC[C@@]1(O)C2` belongs “inactive; active”; to `C=CBr`, “active; inactive”.
As to `FC(F)OC(F)(F)C(F)Cl` (centres undefined), the outcome was “inactive; active”.
Consider `Nc1ccc(N=Nc2ccccc2)c(N)n1`, for which the outcome was inactive.
To `O=NN1CCC(O)C1` (centres undefined) belongs “active”; to `CN(C)C(=O)Nc1cccc(C(F)(F)F)c1`, “inactive”; to `C=CC#N`, “active”.
Then `CCCCCC(N)=O`, with “inactive; active”; and `Cc1ccc(O)c(O)c1`, with “inactive; active”; and `S=c1nc[nH]c2nc[nH]c12`, with “active”.
Turning to `COc1ccc(C(c2ccc(OC)cc2)C(Cl)(Cl)Cl)cc1`, the outcome is “inactive; active”.
Then `NCCNc1cccc2ccccc12`, with “active”; and `CC(O)CO` (centres undefined), with “inactive”.
To `C[C@H]1C(=O)O[C@@H]2CCN3CC=C(COC(=O)[C@](C)(O)[C@]1(C)O)[C@H]23` belongs “inactive; active”; to `COS(C)(=O)=O`, “active”.
To `CC(=O)Nc1ccc(O)cc1` belongs “inactive; active”; to `O=[N+]([O-])c1ccc(Oc2ccc(Cl)cc2Cl)cc1`, “active”; to `O=C1CCCO1`, “inactive; active”.
Turning to `CCCCOC(=O)c1ccccc1C(=O)OCc1ccccc1`, the result was inactive.
Consider `CCC(C)c1cc([N+](=O)[O-])cc([N+](=O)[O-])c1O` (centres undefined), for which the outcome was inactive.
Take `CCc1cc(C(N)=S)ccn1`: the outcome was “inactive; active”.
To `CC(=O)Nc1nc(-c2ccc([N+](=O)[O-])o2)cs1` belongs “active; inactive”.
Then `Cc1cc(C(C)(C)C)c(O)c(C(C)(C)C)c1`, with “inactive”; and `CC(C)CCC[C@@H](C)[C@H]1CC[C@H]2[C@@H]3CC=C4C[C@@H](OC(=O)Cc5ccc(N(CCCl)CCCl)cc5)CC[C@]4(C)[C@H]3CC[C@]12C`, with “inactive; active”.
Consider `CC(=O)Nc1ccc2c(c1)Cc1cc(NC(C)=O)ccc1-2`, for which the result was active.
Then `Nc1cc(Cl)cc(C(=O)O)c1Cl`, with “active”.
To `CC(=O)Oc1ccccc1C(=O)O` belongs “inactive”; to `C=C1C/C(=C/C)C(=O)O[C@@H]2CCN3CC=C(COC(=O)[C@@]1(O)CO)[C@H]23`, “active; inactive”.
Then `Cc1ccc(OP(=O)(Oc2ccc(C)cc2)Oc2ccc(C)cc2)cc1`, with “inactive; active”; and `O=[N+]([O-])c1ccc(-c2nc(N(CCO)CCO)c3ccccc3n2)s1`, with “inactive; active”; and `Cc1noc(NS(=O)(=O)c2ccc(N)cc2)c1C`, with “inactive; active”.
As to `OCc1ccccc1`, the result was inactive.
Then `CCCOC(=O)c1cc(O)c(O)c(O)c1`, with “inactive”.
To `NNC(N)=O` belongs “inactive”.
To `O=Nc1ccc(NO)cc1` belongs “active; inactive”.
